By Ki is commonly meant the dissociation constant of the complex between target and ligand, obtained from inhibition or displacement. Read a low Ki as a stronger hold on the target. As usually defined, the Inhibition is the percentage by which the read-out fell short of the control. Higher therefore signals a strong effect. For orientation: Tmax means the time from dosing to the highest level. As usually defined, the AUC is the area under the concentration-time curve, a measure of exposure. A high value points to more exposure. As a reminder, the EC50 is the concentration that produces a half-maximal response. A low value points to higher potency in that assay. As usually defined, the ED50 is the dose that gives a 50% effect, or the effect in half of the subjects. High values mean weaker potency, low ones greater potency. By half-life is commonly meant how long it takes for the measured level to halve. A higher half-life goes with slow decline. Usually clearance stands for a measure of how efficiently the substance is removed, as volume per time. Read a high clearance as efficient removal.

Here are results for ten molecules from ChEMBL document CHEMBL1143179 (Bioorg Med Chem Lett, 2008).

Active and inactive are the calls of the source. The calls are words filed in the database; no cut-off is given here.

For data set [1], the target named is T1, Prostaglandin E2 receptor EP2 subtype (Homo sapiens, UniProt P43116). In words: Displacement of [3H]PGE2 from human EP2 receptor.
T1 sequence (P43116 whole entry): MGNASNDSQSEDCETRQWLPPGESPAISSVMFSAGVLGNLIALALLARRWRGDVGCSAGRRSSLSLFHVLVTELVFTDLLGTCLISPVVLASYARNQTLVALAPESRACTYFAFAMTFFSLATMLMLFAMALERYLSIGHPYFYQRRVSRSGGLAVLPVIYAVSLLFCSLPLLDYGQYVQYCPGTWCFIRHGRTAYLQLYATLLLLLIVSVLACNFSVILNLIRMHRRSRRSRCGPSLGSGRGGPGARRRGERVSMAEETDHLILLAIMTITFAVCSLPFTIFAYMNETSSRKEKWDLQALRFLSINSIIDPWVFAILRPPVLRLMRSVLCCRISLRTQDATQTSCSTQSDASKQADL
Data set [2] deals with T2, Prostaglandin E2 receptor EP4 subtype (Homo sapiens, UniProt P35408). In words: Displacement of […] from human EP4 receptor.
T2 sequence (P35408 whole entry): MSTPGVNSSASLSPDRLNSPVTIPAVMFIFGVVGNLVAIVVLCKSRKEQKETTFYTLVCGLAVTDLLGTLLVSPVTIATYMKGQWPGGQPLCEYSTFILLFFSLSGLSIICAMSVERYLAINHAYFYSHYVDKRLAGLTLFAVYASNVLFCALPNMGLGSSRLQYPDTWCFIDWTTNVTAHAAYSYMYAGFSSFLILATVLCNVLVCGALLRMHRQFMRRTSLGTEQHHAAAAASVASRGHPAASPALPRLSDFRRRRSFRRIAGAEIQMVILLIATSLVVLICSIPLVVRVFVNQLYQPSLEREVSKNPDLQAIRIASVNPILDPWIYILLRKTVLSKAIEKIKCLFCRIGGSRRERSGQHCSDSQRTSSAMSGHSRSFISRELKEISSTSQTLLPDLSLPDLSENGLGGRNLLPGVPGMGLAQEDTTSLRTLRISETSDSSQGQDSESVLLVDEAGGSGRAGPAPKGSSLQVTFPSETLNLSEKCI
The test system of data set [3] is Mus musculus. In words: Induction of ovulation in po dosed CD1 mouse. It counts as functional.
Data set [4] relates to Cavia porcellus. In words: Inhibition of methacholine-induced bronchoconstriction in Duncan-Hartley guinea pig at >3 ug/kg. Type of data set: functional.
Data set [5] can be described thus: Tmax in rat at 10 mg/kg, iv. The conditions noted are these: in vivo. Also noted: dose 10 mg/kg, route intravenous. It counts as ADME, organism-based.
Data set [6] relates to Rattus norvegicus. In words: AUC (0 to 48 hrs) in rat at 10 mg/kg, sc. Type of data set: ADME, organism-based, Plasma. Also noted: time < 48 hr, dose 10 mg/kg, route subcutaneous. The conditions noted are these: in vivo.
Data set [7] is described as follows: Drug distribution in rat at 10 mg/kg, iv. It counts as ADME, organism-based. Particulars: in vivo, read-out: Drug uptake. Also on record: dose 10 mg/kg, route intravenous.
The target of data set [8] is T2, Prostaglandin E2 receptor EP4 subtype. In words: Agonist activity at human EP4 receptor by cAMP assay. Type of data set: functional.
A short description of data set [9]: Tmax in rat at 10 mg/kg, po. Type of data set: ADME, organism-based. Also on record: dose 10 mg/kg, route oral. The conditions noted are these: in vivo.
The species named for data set [10] is Cavia porcellus. In words: Inhibition of methacholine-induced bronchoconstriction in Duncan-Hartley guinea pig. Type of data set: functional.
Data set [11] is described as follows: Half life in rat at 10 mg/kg, sc. The conditions noted are these: in vivo. Also on record: dose 10 mg/kg, route subcutaneous. It counts as ADME, organism-based.
For data set [12], the system named is Rattus norvegicus. In words: AUC (0 to 48 hrs) in rat at 10 mg/kg, iv. Type of data set: ADME, organism-based, Plasma. Also noted: time < 48 hr, dose 10 mg/kg, route intravenous. Particulars: in vivo.
A short description of data set [13]: Half life in rat at 10 mg/kg, po. Particulars: in vivo. Also noted: dose 10 mg/kg, route oral. Type of data set: ADME, organism-based.
The target of data set [14] is T1, Prostaglandin E2 receptor EP2 subtype. In words: Agonist activity at human EP2 receptor by cAMP assay. It counts as functional.
For data set [15], the system named is Rattus norvegicus. In words: Oral bioavailability in rat at 10 mg/kg. Type of data set: ADME, organism-based. Particulars: in vivo.
In data set [16] the test system is Rattus norvegicus. In words: AUC (0 to 48 hrs) in rat at 10 mg/kg, po. Type of data set: ADME, organism-based, Plasma. Also noted: time < 48 hr, dose 10 mg/kg, route oral. Particulars: in vivo.
Data set [17] in a line: Tmax in rat at 10 mg/kg, sc. It counts as ADME, organism-based. Also on record: dose 10 mg/kg, route subcutaneous. Particulars: in vivo.
Data set [18] in a line: Half life in rat at 10 mg/kg, iv. It counts as ADME, organism-based. Also noted: dose 10 mg/kg, route intravenous. The conditions noted are these: in vivo.
A short description of data set [19]: Clearance in rat at 10 mg/kg. Type of data set: ADME, organism-based. Also on record: dose 10 mg/kg. The conditions noted are these: in vivo.
In data set [20] the test system is Rattus norvegicus. In words: Bioavailability in rat at 10 mg/kg, sc. Type of data set: ADME, organism-based. The conditions noted are these: in vivo.
For data set [21], the system named is Mus musculus. In words: Induction of ovulation in sc dosed CD1 mouse. It counts as functional.

Regarding `CC[C@H](O)/C=C/[C@H]1CCC(=O)N1CCc1ccc(C(=O)O)cc1`, the figures for the Ki in data set [1] and in data set [2] were over 10000 nM and 490 nM, respectively.
Consider `CCCC1([C@H](O)C/C=C/[C@H]2[C@H](O)CC(=O)[C@@H]2CCCCCCC(=O)OC)CCC1`, for which the outcome in [3] was inactive.
With `CCCCCC[C@H](O)/C=C/[C@H]1CCC(=O)N1CCc1ccc(C(=O)O)cc1`, affinity in data set [1] was put at a Ki of 54 nM.
Turning to `CCC[C@H](O)/C=C/[C@H]1CCC(=O)N1CCc1ccc(C(=O)O)cc1`, the Ki was 25000 nM in [1] and 27 nM in data set [2].
Molecule `CCCCC[C@H](O)/C=C/[C@H]1CCC(=O)N1CCc1ccc(C(=O)O)cc1` showed an Inhibition in data set [4] of over 50%. Moreover, the Tmax in data set [5] came out at 4.98 min; in [9] it was 4 h; in data set [17], 0.25 h. Moreover, the figures for the area under the curve (AUC) in [6], in [12] and in [16] were 35175.6 ng·h/mL, 18095.3 ng·h/mL and 14657.8 ng·h/mL, respectively. For the same molecule, the Vd in [7] turned out to be 42.4 L/kg. Further, the EC50 in [8] amounted to 0.02 nM; in data set [14], 15 nM. Moreover, the ED50 in data set [10] came out at 0.0017 mg/kg. The figures for the half-life in [11], in data set [13] and in [18] were 31.6 h, 20.8 h and 14.3 h, respectively. For the same molecule, the F in [15] came out at 33%; in [20] it was 82%. In data set [19], this molecule had a clearance of 9.17 mL/min/kg.
On to `O=C(O)c1ccc(CCN2C(=O)CC[C@@H]2/C=C/[C@@H](O)Cc2cccc(Cl)c2)cc1`, for which the EC50 came out at 0.03 nM in [8] and 250 nM in [14]. Moreover, the result in [21] was inactive. In addition, the results for the Ki in data set [1] and in data set [2] were 1000 nM and 0.02 nM, respectively.
For the molecule `CCCCC1([C@@H](O)/C=C/[C@H]2CCC(=O)N2CCc2ccc(C(=O)O)cc2)CCC1`, the EC50 in [8] turned out to be 0.3 nM; in data set [14] it was 3 nM. Also, the ED50 in data set [3] worked out at 1 mg/kg. In data set [21], the result was inactive. Moreover, the inhibition constant Ki in data set [1] came to 21 nM; in [2], 2 nM.
`CCCCC(C)(C)[C@H](O)/C=C/[C@H]1CCC(=O)N1CCc1ccc(C(=O)O)cc1`: the EC50 in data set [8] was found to be 3 nM; in data set [14], 19 nM. The Ki in data set [1] worked out at 141 nM; in data set [2], 9 nM.
Regarding `O=C(O)c1ccc(CCN2C(=O)CC[C@@H]2/C=C/[C@@H](O)Cc2ccccc2)cc1`, the EC50 in [8] stood at 0.03 nM; in data set [14], 434 nM. Moreover, the Ki in data set [1] was determined as 2540 nM.
As to `CCCC[C@H](O)/C=C/[C@H]1CCC(=O)N1CCc1ccc(C(=O)O)cc1`, the figures for the EC50 in data set [8] and in data set [14] were 0.04 nM and 80 nM, respectively. Moreover, the Ki was determined as 425 nM in [1] and 1 nM in data set [2].
